Tests used:
Experiment in all cases: NCI 60 cell line single dose screen
Assay type in all cases: cell-based, human
786-0 = 786-0 (Renal Cancer), 10 micromolar, 48 h
Text: (§1) Analog 10 was screened utilizing 60 different human tumor cell lines, representing leukemia, melanoma and cancers of the lung, colon, brain, ovary, breast, prostate, and kidney in order to show selective growth inhibition or cell killing of particular tumor cell lines. This screen is unique in that the complexity of a 60 cell line dose response produced by a given compound results in a biological response pattern which can be utilized in pattern recognition algorithms (COMPARE program. See: http://dtp.nci.nih.gov/docs/compare/compare.html). Using these algorithms, it is possible to assign a putative mechanism of action to a test compound, or to determine that the response pattern is unique and not similar to that of any of the standard prototype compounds included in the NCI database. In addition, following characterization of various cellular molecular targets in the 60 cell lines, it may be possible to select compounds most likely to interact with a specific molecular target.
(§2) The screening is a two-stage process, beginning with the evaluation of the compound against the 60 cell lines at a single dose of 10 uM.
(§3) The human tumor cell lines of the cancer screening panel are grown in RPMI 1640 medium containing 5% fetal bovine serum and 2 mM L-glutamine. For a typical screening experiment, cells are inoculated into 96 well microtiter plates in 100 μL at plating densities ranging from 5,000 to 40,000 cells/well depending on the doubling time of individual cell lines. After cell inoculation, the microtiter plates are incubated at 37° C., 5% CO2, 95% air and 100% relative humidity for 24 h prior to addition of experimental drug.
(§4) After 24 h, two plates of each cell line are fixed in situ with TCA, to represent a measurement of the cell population for each cell line at the time of drug addition (Tz). Experimental drugs are solubilized in dimethyl sulfoxide at 400-fold the desired final maximum test concentration and stored frozen prior to use. At the time of drug addition, an aliquot of frozen concentrate is thawed and diluted to twice the desired final maximum test concentration with complete medium containing 50 μg/ml gentamicin.
(§5) Following drug addition, the plates are incubated for an additional 48 h at 37° C., 5% CO2, 95% air, and 100% relative humidity. For adherent cells, the assay is terminated by the addition of cold TCA. Cells are fixed in situ by the gentle addition of […] of cold 50% (w/v) TCA (final concentration, 10% TCA) and incubated for 60 minutes at 4° C. The supernatant is discarded, and the plates are washed five times with tap water and air dried. Sulforhodamine B (SRB) solution (100 μl) at 0.4% (w/v) in 1% acetic acid is added to each well, and plates are incubated for 10 minutes at room temperature. After staining, unbound dye is removed by washing five times with 1% acetic acid and the plates are air dried. Bound stain is subsequently solubilized with 10 mM trizma base, and the absorbance is read on an automated plate reader at a wavelength of 515 nm. For suspension cells, the methodology is the same except that the assay is terminated by fixing settled cells at the bottom of the wells by gently adding 50 μl of 80% TCA (final concentration, 16% TCA). Using the absorbance measurements [time zero, (Tz), control growth, (C), and test growth in the presence of drug (Ti)], the percentage growth is calculated.

A498 = A498 (Renal Cancer), 10 micromolar, 48 h
Text: as §1, §2, §3, §4, §5

A549/ATCC = A549/ATCC (Non-Small Cell Lung Cancer), 10 micromolar, 48 h
Text: as §1, §2, §3, §4, §5

ACHN = ACHN (Renal Cancer), 10 micromolar, 48 h
Text: as §1, §2, §3, §4, §5

DU-145 = DU-145 (Prostate Cancer), 10 micromolar, 48 h
Text: as §1, §2, §3, §4, §5

HCT-116 = HCT-116 (Colon Cancer), 10 micromolar, 48 h
Text: as §1, §2, §3, §4, §5

HCT-15 = HCT-15 (Colon Cancer), 10 micromolar, 48 h
Text: as §1, §2, §3, §4, §5

HT29 = HT29 (Colon Cancer), 10 micromolar, 48 h
Text: as §1, §2, §3, §4, §5

IGROV1 = IGROV1 (Ovarian Cancer), 10 micromolar, 48 h
Text: as §1, §2, §3, §4, §5

KM12 = KM12 (Colon Cancer), 10 micromolar, 48 h
Text: as §1, §2, §3, §4, §5

M14 = M14 (Melanoma), 10 micromolar, 48 h
Text: as §1, §2, §3, §4, §5

MALME-3M = MALME-3M (Melanoma), 10 micromolar, 48 h
Text: as §1, §2, §3, §4, §5

MDA-MB-435 = MDA-MB-435 (Melanoma), 10 micromolar, 48 h
Text: as §1, §2, §3, §4, §5

MOLT-4 = MOLT-4 (Leukemia), 10 micromolar, 48 h
Text: as §1, §2, §3, §4, §5

NCI-H460 = NCI-H460 (Non-Small Cell Lung Cancer), 10 micromolar, 48 h
Text: as §1, §2, §3, §4, §5

OVCAR-3 = OVCAR-3 (Ovarian Cancer), 10 micromolar, 48 h
Text: as §1, §2, §3, §4, §5

RXF 393 = RXF 393 (Renal Cancer), 10 micromolar, 48 h
Text: as §1, §2, §3, §4, §5

SN12C = SN12C (Renal Cancer), 10 micromolar, 48 h
Text: as §1, §2, §3, §4, §5

SR = SR (Leukemia), 10 micromolar, 48 h
Text: as §1, §2, §3, §4, §5

SW-620 = SW-620 (Colon Cancer), 10 micromolar, 48 h
Text: as §1, §2, §3, §4, §5

T-47D = T-47D (Breast Cancer), 10 micromolar, 48 h
Text: as §1, §2, §3, §4, §5

TK-10 = TK-10 (Renal Cancer), 10 micromolar, 48 h
Text: as §1, §2, §3, §4, §5

COCCC(=O)NC[C@H](O)[C@H](C)C(=O)NCCC[C@H]1O[C@@]2(CCC[C@@H](CC[C@H](C)/C=C(\C)[C@H](C)O)O2)CCC1C (stereo partly shown) [Analog 10]
Growth Percent (786-0): 50.94%
Growth Percent (A498): 1.82%
Growth Percent (A549/ATCC): 44.50%
Growth Percent (ACHN): 51.57%
Growth Percent (DU-145): 54.89%
Growth Percent (HCT-116): 55.84%
Growth Percent (HCT-15): 58.89%
Growth Percent (HT29): 30.53%
Growth Percent (IGROV1): 17.52%
Growth Percent (KM12): 73.09%
Growth Percent (M14): 71.74%
Growth Percent (MALME-3M): 72.36%
Growth Percent (MDA-MB-435): 72.88%
Growth Percent (MOLT-4): 57.48%
Growth Percent (NCI-H460): 48.25%
Growth Percent (OVCAR-3): 83.59%
Growth Percent (RXF 393): 26.83%
Growth Percent (SN12C): 57.59%
Growth Percent (SR): 40.40%
Growth Percent (SW-620): 45.90%
Growth Percent (T-47D): 71.80%
Growth Percent (TK-10): 30.01%
